Assays:
[1] = target: recombinant human AChE (hAChE) (Homo sapiens, UniProt P22303); assay: hAChE inhibition assay; assay type: biochemical; conditions: read-out: hAChE inhibition rate % at 20 µM
[2] = test system: Aβ1–42-induced cognitive impairment in mice; assay: Morris water maze in Aβ1–42-induced cognitive impairment model; assay type: in vivo; conditions: T14-A24 10 mg/kg po, donepezil 15 mg/kg po

Sequence of recombinant human AChE (hAChE) (P22303 32-614): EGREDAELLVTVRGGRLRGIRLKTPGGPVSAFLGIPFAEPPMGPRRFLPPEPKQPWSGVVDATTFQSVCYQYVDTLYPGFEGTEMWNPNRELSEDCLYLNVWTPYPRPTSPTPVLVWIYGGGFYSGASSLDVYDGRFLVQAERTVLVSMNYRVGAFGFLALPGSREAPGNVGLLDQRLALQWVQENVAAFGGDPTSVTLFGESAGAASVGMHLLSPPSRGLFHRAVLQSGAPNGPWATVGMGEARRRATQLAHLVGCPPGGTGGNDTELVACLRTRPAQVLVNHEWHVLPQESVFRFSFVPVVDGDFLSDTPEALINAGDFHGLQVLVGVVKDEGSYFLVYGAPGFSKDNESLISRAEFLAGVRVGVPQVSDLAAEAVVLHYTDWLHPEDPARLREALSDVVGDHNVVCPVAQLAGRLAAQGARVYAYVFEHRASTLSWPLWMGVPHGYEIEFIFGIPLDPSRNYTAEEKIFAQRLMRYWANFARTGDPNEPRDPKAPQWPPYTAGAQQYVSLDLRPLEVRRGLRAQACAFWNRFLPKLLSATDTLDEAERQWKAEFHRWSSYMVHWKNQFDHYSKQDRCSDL

Row | SMILES | inhibition at 20 µM [1] [%] | Aβ1–42-induced cognitive dysfunction (Morris water maze) [2]
1 | CCN(C)C(=O)Oc1cccc([C@H](C)N(C)C)c1 [Rivastigmine] | 16.5 ± 0.8 | 
2 | COc1cc2c(cc1OC)C(=O)C(CC1CCN(Cc3ccccc3)CC1)C2 (centres unmarked) [Donepezil] |  | significantly improved
